Experimental data: US6706663B2, “Herbicidal 3-heterocyclic substituted benzisothiazole and benzisoxazole compounds” (Wyeth, priority 2000, dated 2004)

Assays:
GALAP (Galium aparine) [1] = experiment: Postemergence herbicidal evaluation; type: in vivo; conditions: postemergence
In short: (§1)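 Visual 0–9 injury scores versus control plants, covering stand, vigour, malformation, size, chlorosis and general appearance, taken four to five weeks post-spray and averaged over replicate tests. Plants were sprayed at roughly two weeks old and held on greenhouse benches.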

[2] = system: GLXMAW (Soybean, Williams); experiment: Preemergence herbicidal evaluation; type: in vivo, Glycine max, (L.) Merr. cv Williams; conditions: rated 4-5 weeks after treatment
[3] = system: GLXMAW (Soybean, Williams); experiment: Postemergence herbicidal evaluation; type: in vivo, Glycine max, (L.) Merr. cv Williams; conditions: postemergence
In short: as §1

[4] = system: CHEAL (Chenopodium album); experiment: Preemergence herbicidal evaluation; type: in vivo, L.; conditions: rated 4-5 weeks after treatment
In short: (§2)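 Rating 0–9, visual, vs control; 4–5 wk after spraying seeded cups with compound in aq. acetone; conventional greenhouse care.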

[5] = system: AMBEL (Ambrosia artemisifolia); experiment: Preemergence herbicidal evaluation; type: in vivo, L.; conditions: rated 4-5 weeks after treatment
In short: as §2

[6] = system: CASOB (Cassia obtusifolia); experiment: Preemergence herbicidal evaluation; type: in vivo, L.; conditions: rated 4-5 weeks after treatment
In short: as §2

[7] = system: IPOHE (Ipomoea hederacea); experiment: Postemergence herbicidal evaluation; type: in vivo, (L.) Jacq.; conditions: postemergence
In short: as §1

[8] = system: ECHCG (Echinochloa crus-galli); experiment: Postemergence herbicidal evaluation; type: in vivo, (L.) Beau; conditions: postemergence
In short: as §1

[9] = system: CHEAL (Chenopodium album); experiment: Postemergence herbicidal evaluation; type: in vivo, L.; conditions: postemergence
In short: as §1

[10] = system: AMBEL (Ambrosia artemisifolia); experiment: Postemergence herbicidal evaluation; type: in vivo, L.; conditions: postemergence
In short: as §1

[11] = system: CASOB (Cassia obtusifolia); experiment: Postemergence herbicidal evaluation; type: in vivo, L.; conditions: postemergence
In short: as §1

[12] = system: ECHORC (Echinochloa oryzoides); experiment: Flooded paddy, preemergence weed control; type: in vivo, Echinochloa oryzoides (Ard.) Fritsch.; conditions: rated 3-4 weeks after treatment, 0-9 rating scale
In short: (§3)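 Scoring used a 0-9 visual scale relative to control. Before that, seeds or propagules were planted shallowly in silt loam and flooded to 1.5–3 cm, a depth maintained throughout, with greenhouse care during the test.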

ORYSAT (Rice, Tebonnet) = experiment: Preemergence herbicidal evaluation; type: in vivo, Oryza sativa, (L.) Tebonnet; conditions: rated 4-5 weeks after treatment
[13] = system: IPOHE (Ipomoea hederacea); experiment: Preemergence herbicidal evaluation; type: in vivo, (L.) Jacq.; conditions: rated 4-5 weeks after treatment
GALAP (Galium aparine) [14] = experiment: Preemergence herbicidal evaluation; type: in vivo; conditions: rated 4-5 weeks after treatment
In short: as §2

[15] = system: ABUTH (Abutilon theophrasti); experiment: Postemergence herbicidal evaluation; type: in vivo, Medic.; conditions: postemergence
In short: as §1

ZEAMX (Corn, Field) [16] = experiment: Postemergence herbicidal evaluation; type: in vivo, Zea mays, L.; conditions: postemergence
In short: as §1

CYPIR (Cyperus iria) = experiment: Flooded paddy, preemergence weed control; type: in vivo; conditions: rated 3-4 weeks after treatment, 0-9 rating scale
In short: as §3

ZEAMX (Corn, Field) [17] = experiment: Preemergence herbicidal evaluation; type: in vivo, Zea mays, L.; conditions: rated 4-5 weeks after treatment
[18] = system: TRZAWR (Wheat, Winter, cv Riband); experiment: Preemergence herbicidal evaluation; type: in vivo, Triticum aestivum; conditions: rated 4-5 weeks after treatment
In short: as §2

[19] = system: SAGPY (Sagittaria pygmaea); experiment: Flooded paddy, preemergence weed control; type: in vivo, L.; conditions: rated 3-4 weeks after treatment, 0-9 rating scale
In short: as §3

COCC1COC(c2nsc3ccc(-n4c(=O)cc(C(F)(F)F)n(C)c4=O)cc23)O1 (stereo not drawn) [Compound 64, 3-[3-[4-(methoxymethyl)-1,3-dioxolan-2-yl]-1,2-benzisothiazol-5-yl]-1-methyl-6-(trifluoromethyl)uracil]
5.5: ZEAMX herbicidal rating (ZEAMX (Corn, Field) [16]; rate 0.0320 kg/ha) | ZEAMX herbicidal rating (ZEAMX (Corn, Field) [16]; rate 0.0620 kg/ha)
1.5: herbicidal rating, ECHORC ([12]; rate 0.0080 kg/ha) | herbicidal rating, CYPIR (CYPIR (Cyperus iria); rate 0.0080 kg/ha)
0.0: herbicidal rating, SAGPY ([19]; rate 0.0080 kg/ha)
3.0: ECHCG herbicidal rating ([8]; rate 0.0320 kg/ha) | herbicidal rating, SAGPY ([19]; rate 0.0320 kg/ha)
4.0: CASOB herbicidal rating ([11]; rate 0.0320 kg/ha)
6.0: herbicidal rating, CYPIR (CYPIR (Cyperus iria); rate 0.0320 kg/ha)
7.5: Preemergence herbicidal rating CASOB ([6]; Rate 0.0620 kg/ha)
8.5: GLXMAW herbicidal rating ([3]; rate 0.0620 kg/ha) | Preemergence herbicidal rating ORYSAT (ORYSAT (Rice, Tebonnet); Rate 0.0620 kg/ha) | Preemergence herbicidal rating ZEAMX (ZEAMX (Corn, Field) [17]; Rate 0.0620 kg/ha)
5.0: ECHCG herbicidal rating ([8]; rate 0.0620 kg/ha) | CASOB herbicidal rating ([11]; rate 0.0620 kg/ha)
9.0: GALAP herbicidal rating (GALAP (Galium aparine) [1]; rate 0.0320 kg/ha) | GALAP herbicidal rating (GALAP (Galium aparine) [1]; rate 0.0620 kg/ha) | Preemergence herbicidal rating GLXMAW ([2]; Rate 0.0620 kg/ha) | Preemergence herbicidal rating GLXMAW ([2]; Rate 0.1250 kg/ha) | Preemergence herbicidal rating GLXMAW ([2]; Rate 0.2500 kg/ha) | Preemergence herbicidal rating CHEAL ([4]; Rate 0.0620 kg/ha) | Preemergence herbicidal rating CHEAL ([4]; Rate 0.1250 kg/ha) | Preemergence herbicidal rating CHEAL ([4]; Rate 0.2500 kg/ha) | Preemergence herbicidal rating AMBEL ([5]; Rate 0.0620 kg/ha) | Preemergence herbicidal rating AMBEL ([5]; Rate 0.1250 kg/ha) | Preemergence herbicidal rating AMBEL ([5]; Rate 0.2500 kg/ha) | Preemergence herbicidal rating CASOB ([6]; Rate 0.1250 kg/ha) | Preemergence herbicidal rating CASOB ([6]; Rate 0.2500 kg/ha) | IPOHE herbicidal rating ([7]; rate 0.0320 kg/ha) | IPOHE herbicidal rating ([7]; rate 0.0620 kg/ha) | CHEAL herbicidal rating ([9]; rate 0.0320 kg/ha) | CHEAL herbicidal rating ([9]; rate 0.0620 kg/ha) | AMBEL herbicidal rating ([10]; rate 0.0320 kg/ha) | AMBEL herbicidal rating ([10]; rate 0.0620 kg/ha) | herbicidal rating, ECHORC ([12]; rate 0.0320 kg/ha) | herbicidal rating, ECHORC ([12]; rate 0.1250 kg/ha) | Preemergence herbicidal rating ORYSAT (ORYSAT (Rice, Tebonnet); Rate 0.1250 kg/ha) | Preemergence herbicidal rating ORYSAT (ORYSAT (Rice, Tebonnet); Rate 0.2500 kg/ha) | Preemergence herbicidal rating IPOHE ([13]; Rate 0.1250 kg/ha) | Preemergence herbicidal rating IPOHE ([13]; Rate 0.2500 kg/ha) | Preemergence herbicidal rating GALAP (GALAP (Galium aparine) [14]; Rate 0.0620 kg/ha) | Preemergence herbicidal rating GALAP (GALAP (Galium aparine) [14]; Rate 0.1250 kg/ha) | Preemergence herbicidal rating GALAP (GALAP (Galium aparine) [14]; Rate 0.2500 kg/ha) | ABUTH herbicidal rating ([15]; rate 0.0320 kg/ha) | ABUTH herbicidal rating ([15]; rate 0.0620 kg/ha) | herbicidal rating, CYPIR (CYPIR (Cyperus iria); rate 0.1250 kg/ha) | Preemergence herbicidal rating ZEAMX (ZEAMX (Corn, Field) [17]; Rate 0.1250 kg/ha) | Preemergence herbicidal rating ZEAMX (ZEAMX (Corn, Field) [17]; Rate 0.2500 kg/ha) | Preemergence herbicidal rating TRZAWR ([18]; Rate 0.0620 kg/ha) | Preemergence herbicidal rating TRZAWR ([18]; Rate 0.1250 kg/ha) | Preemergence herbicidal rating TRZAWR ([18]; Rate 0.2500 kg/ha) | herbicidal rating, SAGPY ([19]; rate 0.1250 kg/ha)
7.0: GLXMAW herbicidal rating ([3]; rate 0.0320 kg/ha) | Preemergence herbicidal rating IPOHE ([13]; Rate 0.0620 kg/ha)

Cc1cnn(-c2nsc3ccc(-n4c(=O)cc(C(F)(F)F)n(C)c4=O)cc23)c1 [Compound 59, 1-methyl-3-[3-(4-methylpyrazol-1-yl)-1,2-benzisothiazol-5-yl]-6-(trifluoromethyl)uracil]
1.0: Preemergence herbicidal rating ORYSAT (ORYSAT (Rice, Tebonnet); Rate 0.0620 kg/ha) | Preemergence herbicidal rating IPOHE ([13]; Rate 0.1250 kg/ha) | Preemergence herbicidal rating ZEAMX (ZEAMX (Corn, Field) [17]; Rate 0.0620 kg/ha) | Preemergence herbicidal rating TRZAWR ([18]; Rate 0.0620 kg/ha)
2.0: Preemergence herbicidal rating GLXMAW ([2]; Rate 0.1250 kg/ha) | Preemergence herbicidal rating ORYSAT (ORYSAT (Rice, Tebonnet); Rate 0.1250 kg/ha) | Preemergence herbicidal rating ORYSAT (ORYSAT (Rice, Tebonnet); Rate 0.2500 kg/ha) | Preemergence herbicidal rating TRZAWR ([18]; Rate 0.1250 kg/ha) | Preemergence herbicidal rating TRZAWR ([18]; Rate 0.2500 kg/ha)
7.5: GLXMAW herbicidal rating ([3]; rate 0.0320 kg/ha) | GLXMAW herbicidal rating ([3]; rate 0.0620 kg/ha)
5.0: Preemergence herbicidal rating AMBEL ([5]; Rate 0.1250 kg/ha) | Preemergence herbicidal rating GALAP (GALAP (Galium aparine) [14]; Rate 0.0620 kg/ha) | Preemergence herbicidal rating GALAP (GALAP (Galium aparine) [14]; Rate 0.1250 kg/ha) | Preemergence herbicidal rating ZEAMX (ZEAMX (Corn, Field) [17]; Rate 0.1250 kg/ha) | Preemergence herbicidal rating ZEAMX (ZEAMX (Corn, Field) [17]; Rate 0.2500 kg/ha)
3.0: GALAP herbicidal rating (GALAP (Galium aparine) [1]; rate 0.0620 kg/ha) | GALAP herbicidal rating (GALAP (Galium aparine) [1]; rate 0.1250 kg/ha) | Preemergence herbicidal rating GLXMAW ([2]; Rate 0.2500 kg/ha) | ECHCG herbicidal rating ([8]; rate 0.1250 kg/ha) | CASOB herbicidal rating ([11]; rate 0.0620 kg/ha) | CASOB herbicidal rating ([11]; rate 0.1250 kg/ha) | herbicidal rating, ECHORC ([12]; rate 0.1250 kg/ha) | Preemergence herbicidal rating IPOHE ([13]; Rate 0.2500 kg/ha) | herbicidal rating, CYPIR (CYPIR (Cyperus iria); rate 0.0320 kg/ha)
0.0: GALAP herbicidal rating (GALAP (Galium aparine) [1]; rate 0.0320 kg/ha) | Preemergence herbicidal rating GLXMAW ([2]; Rate 0.0620 kg/ha) | Preemergence herbicidal rating AMBEL ([5]; Rate 0.0620 kg/ha) | Preemergence herbicidal rating CASOB ([6]; Rate 0.0620 kg/ha) | Preemergence herbicidal rating CASOB ([6]; Rate 0.1250 kg/ha) | Preemergence herbicidal rating CASOB ([6]; Rate 0.2500 kg/ha) | ECHCG herbicidal rating ([8]; rate 0.0320 kg/ha) | ECHCG herbicidal rating ([8]; rate 0.0620 kg/ha) | CASOB herbicidal rating ([11]; rate 0.0320 kg/ha) | herbicidal rating, ECHORC ([12]; rate 0.0080 kg/ha) | herbicidal rating, ECHORC ([12]; rate 0.0320 kg/ha) | Preemergence herbicidal rating IPOHE ([13]; Rate 0.0620 kg/ha) | herbicidal rating, CYPIR (CYPIR (Cyperus iria); rate 0.0080 kg/ha) | herbicidal rating, SAGPY ([19]; rate 0.0080 kg/ha) | herbicidal rating, SAGPY ([19]; rate 0.0320 kg/ha) | herbicidal rating, SAGPY ([19]; rate 0.1250 kg/ha)
6.5: ZEAMX herbicidal rating (ZEAMX (Corn, Field) [16]; rate 0.0620 kg/ha)
6.0: Preemergence herbicidal rating AMBEL ([5]; Rate 0.2500 kg/ha)
7.0: ZEAMX herbicidal rating (ZEAMX (Corn, Field) [16]; rate 0.1250 kg/ha)
5.5: ZEAMX herbicidal rating (ZEAMX (Corn, Field) [16]; rate 0.0320 kg/ha)
8.0: GLXMAW herbicidal rating ([3]; rate 0.1250 kg/ha) | IPOHE herbicidal rating ([7]; rate 0.0320 kg/ha) | IPOHE herbicidal rating ([7]; rate 0.0620 kg/ha) | CHEAL herbicidal rating ([9]; rate 0.0320 kg/ha)
4.0: Preemergence herbicidal rating GALAP (GALAP (Galium aparine) [14]; Rate 0.2500 kg/ha)
9.0: Preemergence herbicidal rating CHEAL ([4]; Rate 0.0620 kg/ha) | Preemergence herbicidal rating CHEAL ([4]; Rate 0.1250 kg/ha) | Preemergence herbicidal rating CHEAL ([4]; Rate 0.2500 kg/ha) | IPOHE herbicidal rating ([7]; rate 0.1250 kg/ha) | CHEAL herbicidal rating ([9]; rate 0.0620 kg/ha) | CHEAL herbicidal rating ([9]; rate 0.1250 kg/ha) | AMBEL herbicidal rating ([10]; rate 0.0320 kg/ha) | AMBEL herbicidal rating ([10]; rate 0.0620 kg/ha) | AMBEL herbicidal rating ([10]; rate 0.1250 kg/ha) | ABUTH herbicidal rating ([15]; rate 0.0320 kg/ha) | ABUTH herbicidal rating ([15]; rate 0.0620 kg/ha) | ABUTH herbicidal rating ([15]; rate 0.1250 kg/ha) | herbicidal rating, CYPIR (CYPIR (Cyperus iria); rate 0.1250 kg/ha)
